Data taken from patent US20140315972A1, “RS)-2-(2-oxo-4-phenylpyrrolidin-1-yl)acetamide compound having modulatory activity with a commensurate effect, pharmaceutical substance (variants) and its application, composition (variants) thereof” (priority 2011, published 2014).
Marks after values point to notes of the source that are not given here.

Legend:
Assay type in all cases: in vivo
mice [1] = experiment: Hypobaric hypoxia in pressure chamber, adult mice; conditions: for Duration of life: adult mice, hypobaric hypoxia
mice [2] = experiment: Electric extremities pain stimulation, thresholds TA, TFC, TF
rats = experiment: 14-day immobilization in antiorthostatic position (Ds), thymus, spleen, adrenal mass ratios Kt; conditions: Ds-conditions; for S/A: spleen/adrenals ratio (mg/100 g baseline body weight); for S/T: spleen/thymus ratio (mg/100 g baseline body weight); for T/A: thymus/adrenals ratio (mg/100 g baseline body weight)
mice [3] = experiment: Cross maze exploratory behavior, HEF and LEF mice; conditions: i.p. once a day 5 days, Compounds 1 and 4 100 mg/kg, Piracetam 200 mg/kg
rabbits = experiment: Transcallosal stimulation induced potential (TSIP); conditions: Piracetam 300-500, Pyritinol 50-150, Phenotropil 25-300 mg/kg
mice [4] = experiment: Open field test
Description: Study of the effect of Phenotropil (100, 200, 300 mg/kg) on motor activity and exploratory behavior by the open field test on mice (16-24 g) in comparison with olanzapine (1 mg/kg) is shown in Tables 5-5.4. Olanzapine at higher doses has sedative activity, so for comparison with Phenotropil, the drug was used only at a dose of 1 mg/kg. The drugs and distilled water to control groups were injected intraperitoneally 40 minutes prior to the study. […] This indicates the ability of the drug to reversibility, unlike olanzapine.

mice [5] = experiment: Apomorphine verticalization (positive symptoms of schizophrenia); conditions: mice, apomorphine 2 mg/kg s.c.
Description: (§1) Studies have been conducted on white outbred male mice (18-24 g), in comparison with the olanzapine (Zyprexa) with intraperitoneal injection.
In the model of positive symptoms of schizophrenia associated with hyperactivation of the dopamine systems, which allows to identify the ability of substances to block the dopaminergic transmission in the mesolimbic system of the brain, Phenotropil (100, 200, and 300 mg/kg) reduced the apomorphine-induced (2 mg/kg subcutaneously) verticalization intensity scores (Table 4) by 45%, by 2.0 and 2.6 times, respectively.

mice [6] = experiment: Tremor caused by arecoline
Description: as §1

O=C1CC(c2ccccc2)CN1 (racemic) [Fepiron, 4(R,S)-feniilpirrolidin-2-one] was tested, and the “increase of survival time vs control” value (mice [1]; 100 mg/kg) was 47.8%, the “effect on survival of the animals” value (mice [1]; 25-50 mg/kg) was “did not affect the survival of the animals” and the Duration of life (mice [1]; 25 mg/kg) was 2.3 ± 0.2^ min. The Duration of life (mice [1]; 50 mg/kg) was 2.7 ± 0.2^ min, the Duration of life (mice [1]; 100 mg/kg) was 3.4 ± 0.2 min and the “TA (threshold of attention) vs control” value (mice [2]; 25 mg/kg i.p.) was 0.0%. For the same compound, the “TFC (threshold of first cheep) vs control” value (shortened to “TFC … vs control”) (mice [2]; 25 mg/kg i.p.) was −5.7%, the “TA (threshold of attention) vs control” value (mice [2]; 50 mg/kg i.p.) was “+5.0%” and the “TFC … vs control” value (mice [2]; 50 mg/kg i.p.) was “+11.4 * %”. The “TA (threshold of attention) vs control” value (mice [2]; 100 mg/kg i.p.) was “+12.5 * %”, the “TFC … vs control” value (mice [2]; 100 mg/kg i.p.) was “+2.8%” and the S/A (rats; 50 mg/kg) was 11.3 ± 0.3. The S/T (rats; 50 mg/kg) was 5.4 ± 0.3, the T/A (rats; 50 mg/kg) was 2.1 ± 0.2 and the S/A (rats; 100 mg/kg) was 9.0 ± 0.3. It also gave a S/T (rats; 100 mg/kg) of 5.4 ± 0.3, a T/A (rats; 100 mg/kg) of 1.6 ± 0.3 and a S/A (rats; 200 mg/kg) of 9.4 ± 0.4. The S/T (rats; 200 mg/kg) was 9.5 ± 0.9 and the T/A (rats; 200 mg/kg) was 1.0 ± 0.1.
NC(=O)CN1CC(c2ccccc2)CC1=O (stereo not drawn) [Fepiron (−)] was tested, and the S/A (rats; 200 mg/kg) was 9.0 ± 0.5, the S/T (rats; 200 mg/kg) was 4.9 ± 0.7 and the T/A (rats; 200 mg/kg) was 1.9 ± 0.3.
In the case of NC(=O)CN1CCCC1=O [Piracetam], the “shortening of survival time vs control” value (mice [1]; 600 mg/kg) is reported as 35.0%, the “increase of survival time vs control” value (mice [1]; 900-2000 mg/kg) is reported as 78.0% and the Duration of life (mice [1]; 600 mg/kg) is reported as 1.5 ± 0.6 min. The Duration of life (mice [1]; 900 mg/kg) was 4.0 ± 0.6 min, the Duration of life (mice [1]; 2000 mg/kg) was 4.2 ± 0.4 min and the “Kt (trigger transmission coefficient)” value (mice [3]; HEF mice) was 3.1 ± 0.45. The “Number of compartment explorations” value (mice [3]; HEF mice) was 4.2 ± 0.7 //, the Number of surveillances (mice [3]; HEF mice) was 1.9 ± 0.2 and the “Kt (trigger transmission coefficient)” value (mice [3]; LEF mice) was 2.4 ± 0.5. The “Number of compartment explorations” value (mice [3]; LEF mice) was 5.3 ± 0.8 //, the Number of surveillances (mice [3]; LEF mice) was 2.2 ± 0.2 and the “Kt (trigger transmission coefficient)” value (mice [3]; population as a whole) was 1.3 ± 0.45. The “Number of compartment explorations” value (mice [3]; population as a whole) was 4.6 ± 0.7 //, the Number of surveillances (mice [3]; population as a whole) was 2.0 ± 0.2 and the “decrease in the aggression threshold (TF)” value (mice [2]; 100 mg/kg) was 11.3%. The “lowering of threshold of emotional reactivity (TFC)” value (mice [2]; 100 mg/kg) was 23.5%, the “reduction of the pain threshold (TA)” value (mice [2]; 100 mg/kg) was 43.6% and the “TA (threshold of attention) vs control” value (mice [2]; 100 mg/kg i.p.) was −43.6 * %. For the same compound, the “TF (threshold of aggression) vs control” value (mice [2]; 100 mg/kg i.p.) was −11.3 * %, the “TFC … vs control” value (mice [2]; 100 mg/kg i.p.) was −23.5 * % and the “lowering of threshold of emotional reactivity (TFC)” value (mice [2]; 200 mg/kg) was 47.0%. For the same compound, the “reduction of the pain threshold (TA)” value (mice [2]; 200 mg/kg) was 48.1%, the “TA (threshold of attention) vs control” value (mice [2]; 200 mg/kg i.p.) was −48.1 * % and the “TFC … vs control” value (mice [2]; 200 mg/kg i.p.) was −47.0 * %. The “TF (threshold of aggression) vs control” value (mice [2]; 200 mg/kg i.p., 200 mg/kg) was −15.7 * %, the “TF (threshold of aggression) vs control” value (mice [2]; 200 mg/kg i.p., listed as Pyracetam, 200 mg/kg) was 25.7% and the “reduction of the pain threshold (TA)” value (mice [2]; 300 mg/k (so in the source)) was 19.9%. The “increase of aggression threshold (TF)” value (mice [2]; 300 mg/kg (so in the source)) was 7.4%, the “TA (threshold of attention) vs control” value (mice [2]; 400 mg/kg i.p.) was −20.0 * % and the “TF (threshold of aggression) vs control” value (mice [2]; 400 mg/kg i.p.) was −7.4%. The “TFC … vs control” value (mice [2]; 400 mg/kg i.p.) was “+5.0%”, the S/A (rats; 200 mg/kg) was 12.1 ± 1.5 and the S/T (rats; 200 mg/kg) was 7.4 ± 0.7. It also gave a T/A (rats; 200 mg/kg) of 1.6 ± 0.2, a S/A (rats; 400 mg/kg) of 10.8 ± 1.3 and a S/T (rats; 400 mg/kg) of 7.2 ± 0.4. For the same compound, the T/A (rats; 400 mg/kg) was 1.5 ± 0.1, the S/A (rats; 600 mg/kg) was 10.2 ± 0.1 and the S/T (rats; 600 mg/kg) was 4.0 ± 0.1. For the same compound, the T/A (rats; 600 mg/kg) was 2.6 ± 0.1, the “TSIP P1 + N1 amplitude” value (rabbits) was “++ (amplitude increase by 30 to 50%)” and the “TSIP component N1 amplitude” value (rabbits) was “++ (amplitude increase by 30 to 50%)”. For the same compound, the “TSIP component P1 amplitude” value (rabbits) was “+++ (amplitude increase by more than 50%)” and the “TSIP component P2 amplitude” value (rabbits) was “+ (amplitude increase by less than 50%)”.
In the case of Cc1cc2c(s1)Nc1ccccc1N=C2N1CCN(C)CC1 [Olanzapine, reference compound], the “effect on number of explorations compared to the control” value (mice [4]; 1 mg/kg) is reported as “no effect”, the “increase of number of washes during 1 and 2 minutes” value (mice [4]; 1 mg/kg) is reported as 150% and the “increase of number of washes in total” value (mice [4]; 1 mg/kg) is reported as 200%. For the same compound, the “reduction of number of rearings” value (mice [4]; 1 mg/kg) was 47%, the “reduction of number of visits to the center, total index” value (mice [4]; 1 mg/kg) was 39% and the “reduction of overall run distance” value (mice [4]; 1 mg/kg) was 36%. The “Distance covered during 1st min (horizontal motor activity)” value (mice [4]; mice, 1 mg/kg i.p.) was 8.3 ± 1.6, the “Distance during 2nd min (horizontal motor activity)” value (mice [4]; mice, 1 mg/kg i.p.) was 8.8 ± 0.8 and the “Distance during 3rd min (horizontal motor activity)” value (mice [4]; mice, 1 mg/kg i.p.) was 10.2 ± 0.9. The “Explorations during 2nd min” value (mice [4]; mice, 1 mg/kg i.p.) was 0.5 ± 0.2^, the “Explorations during 3rd min” value (mice [4]; mice, 1 mg/kg i.p.) was 1.0 ± 0.3 and the “Number of explorations (holes) during 1st min” value (mice [4]; mice, 1 mg/kg i.p.) was 0.7 ± 0.2^. For the same compound, the “Number of washings during 1st min” value (mice [4]; mice, 1 mg/kg i.p.) was 0.5 ± 0.2, the “Total distance at 3 min (horizontal motor activity)” value (mice [4]; mice, 1 mg/kg i.p.) was 27.3 ± 2.6 and the “Total number of explorations at 3 min” value (mice [4]; mice, 1 mg/kg i.p.) was 2.2 ± 0.4^. For the same compound, the “Total number of visits to the center at 3 min” value (mice [4]; mice, 1 mg/kg i.p.) was 0.7 ± 0.3, the “Total number of washings at 3 min” value (mice [4]; mice, 1 mg/kg i.p.) was 1.2 ± 0.4 and the “Visits to the center during 1st min” value (mice [4]; mice, 1 mg/kg i.p.) was 0 ± 0. For the same compound, the “Visits to the center during 2nd min” value (mice [4]; mice, 1 mg/kg i.p.) was 0.5 ± 0.2, the “Visits to the center during 3rd min” value (mice [4]; mice, 1 mg/kg i.p.) was 0.2 ± 0.2 and the “Washings during 2nd min” value (mice [4]; mice, 1 mg/kg i.p.) was 0.5 ± 0.2. The “Washings during 3rd min” value (mice [4]; mice, 1 mg/kg i.p.) was 0.2 ± 0.2, the “vertical motor activity, 1st min (Distance covered)” value (mice [4]; mice, 1 mg/kg i.p.) was 0.8 ± 0.3 and the “vertical motor activity, 2nd min” value (mice [4]; mice, 1 mg/kg i.p.) was 0.3 ± 0.2. The “vertical motor activity, 3rd min” value (mice [4]; mice, 1 mg/kg i.p.) was 0.5 ± 0.2, the “vertical motor activity, total at 3 min” value (mice [4]; mice, 1 mg/kg i.p.) was 1.7 ± 0.4 and the “Intensity of verticalization in points” value (mice [5]; 1.0 mg/kg i.p.) was 36 ± 8.7 points. For the same compound, the “Intensity of verticalization in points” value (mice [5]; 10 mg/kg i.p.) was 16.4 ± 8.4*^ points, the “reduction of duration of tremor” value (mice [6]; 1 mg/kg) was 57% and the Duration of tremor (mice [6]; mice, arecoline 25 mg/kg, 1.0 mg/kg) was 178 ± 28 s.
For NC(=O)CN1CC(c2ccccc2)CC1=O (stereo not drawn) [Fepiron (+)], the S/A (rats; 200 mg/kg) was 11.3 ± 0.4, the S/T (rats; 200 mg/kg) was 5.4 ± 0.1 and the T/A (rats; 200 mg/kg) was 2.1 ± 0.6.
